Reference: patent US8987502B2, “Oleanolic acid amidate derivatives, preparation methods and uses thereof” (Hangzhou Bensheng Pharmaceutical Co., Ltd., priority 2011, dated 2015)
≈ marks a conversion by molar mass, not a printed value.

Tests used:
K562/adr = assay: MTT leukemia cell proliferation inhibition, K562/adr; format: cell-based; conditions: Homo sapiens, 72 h
Method in brief: (§1)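 Growth inhibition relative to compound-free controls, which define 0%, was calculated from MTT measurement of surviving cells. Exposure lasted 72 h at 37 °C under 5% CO2, starting from 6000 cells per well.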

NB4 = assay: MTT leukemia cell proliferation inhibition, NB4; format: cell-based; conditions: Homo sapiens, NB-4
Method in brief: as §1

Kasumi-1 = assay: MTT leukemia cell proliferation inhibition, Kasumi-1; format: cell-based; conditions: Homo sapiens
Method in brief: as §1

H9 = assay: MTT leukemia cell proliferation inhibition, H9; format: cell-based, human; conditions: Homo sapiens
Method in brief: as §1

Jurkat = assay: MTT leukemia cell proliferation inhibition, Jurkat; format: cell-based; conditions: Homo sapiens, 72 h
Method in brief: as §1

RPMI8226 = assay: MTT multiple myeloma cell proliferation inhibition, RPMI8226; format: cell-based; conditions: Homo sapiens, RPMI-8226
Method in brief: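 RPMI8226 cells (6000 per well) in 1640 medium with 10% FBS were treated with compound at various concentrations for 72 h at 37 °C, 5% CO2. Viable cells were measured by MTT; proliferation inhibition was calculated relative to untreated control set at 0%.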

A549 = assay: MTT solid tumor cell proliferation inhibition, A549; format: cell-based, human
Method in brief: (§2)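 MTT read-out of relative viable cells after 72 h compound exposure at 37 °C, 5% CO2. 4000 cells/well, DMEM high glucose + 10% FBS, 24 h pre-incubation before dosing. Inhibition referenced to untreated control set at 0%.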

PANC-1 = assay: MTT solid tumor cell proliferation inhibition, PANC-1; format: cell-based, human; conditions: Homo sapiens
Method in brief: as §2

Becap37 = assay: MTT solid tumor cell proliferation inhibition, Becap37; format: cell-based; conditions: Homo sapiens
Method in brief: as §2

MG 63 = assay: MTT solid tumor cell proliferation inhibition, MG 63; format: cell-based, human
Method in brief: as §2

Hep G2 = assay: MTT solid tumor cell proliferation inhibition, Hep G2; format: cell-based; conditions: Homo sapiens, HepG2
Method in brief: as §2

RKO = assay: MTT solid tumor cell proliferation inhibition, RKO; format: cell-based; conditions: Homo sapiens, 72 h
Method in brief: as §2

U87 MG = assay: MTT solid tumor cell proliferation inhibition, U87 MG; format: cell-based, human
Method in brief: as §2

Hela = assay: MTT solid tumor cell proliferation inhibition, Hela; format: cell-based, human; conditions: Homo sapiens, Hela, 72 h
Method in brief: as §2

CaES-17 = assay: MTT solid tumor cell proliferation inhibition, CaES-17; format: cell-based, human
Method in brief: as §2

CNE = assay: MTT solid tumor cell proliferation inhibition, CNE; format: cell-based, human; conditions: Homo sapiens, CNE, 72 h
Method in brief: as §2

Hep-2 = assay: MTT solid tumor cell proliferation inhibition, Hep-2; format: cell-based, human
Method in brief: as §2

MGC803 = assay: MTT solid tumor cell proliferation inhibition, MGC803; format: cell-based, human; conditions: Homo sapiens, MGC-803
Method in brief: as §2

PC-3 = assay: MTT solid tumor cell proliferation inhibition, PC-3; format: cell-based, human; conditions: Homo sapiens
Method in brief: as §2

SK-OV-3 = assay: MTT solid tumor cell proliferation inhibition, SK-OV-3; format: cell-based, human; conditions: Homo sapiens
Method in brief: as §2

[1] = 16 μg/mL compound, read-out: IR (inhibition rate)

SMILES: CC1(C)CC[C@]2(NC(=O)c3ccco3)CC[C@]3(C)C(=CC[C@@H]4[C@@]5(C)CC[C@H](O)C(C)(C)[C@@H]5CC[C@]43C)[C@@H]2C1 [BS-OA-099]
- inhibition at 16 µg/mL (K562/adr; [1]): 97.1%
- IC50 (K562/adr; MTT): 5.26 µg/mL (≈ 10.1 µM)
- inhibition at 16 µg/mL (NB4; NB4, 16 μg/mL compound, 72 h, read-out: IR (inhibition rate)): 100%
- IC50 (NB4; NB4, 72 h, MTT): 9.17 µg/mL (≈ 17.6 µM)
- inhibition at 16 µg/mL (Kasumi-1; Kasumi-1, 16 μg/mL compound, 72 h, read-out: IR (inhibition rate)): 69.1%
- IC50 (Kasumi-1; Kasumi-1, 72 h, MTT): 13.1 µg/mL (≈ 25.1 µM)
- inhibition at 16 µg/mL (H9; H9, 16 μg/mL compound, 72 h, read-out: IR (inhibition rate)): 59.8%
- IC50 (H9; H9, 72 h, MTT): 14 µg/mL (≈ 26.8 µM)
- inhibition at 16 µg/mL (Jurkat; [1]): 63.6%
- IC50 (Jurkat; MTT): 14.5 µg/mL (≈ 27.8 µM)
- inhibition at 16 µg/mL (RPMI8226; RPMI8226, 16 μg/mL compound, 72 h, read-out: IR (inhibition rate)): 98.9%
- IC50 (RPMI8226; RPMI8226, 72 h, MTT): 5.79 µg/mL (≈ 11.1 µM)
- improvement of cell inhibition rate as compared with oleanolic acid (A549; A549 cells): more than 4 fold
- inhibition at 16 µg/mL (A549; Homo sapiens, A549, 16 μg/mL compound, 72 h, read-out: IR (inhibition rate)): 75%
- IC50 (A549; Homo sapiens, A549, 72 h, MTT): 15 µg/mL (≈ 28.7 µM)
- inhibition at 16 µg/mL (PANC-1; PANC-1, 16 μg/mL compound, 72 h, read-out: IR (inhibition rate)): 34.3%
- IC50 (PANC-1; PANC-1, 72 h, MTT): > 16 µg/mL
- inhibition at 16 µg/mL (Becap37; Becap37, 16 μg/mL compound, 72 h, read-out: IR (inhibition rate)): 35.1%
- IC50 (Becap37; Becap37, 72 h, MTT): > 16 µg/mL
- IC50 (MG 63; Homo sapiens, MG 63, 72 h, MTT): 15.1 µg/mL (≈ 29 µM)
- IR (inhibition rate) (MG 63; MG 63, 16 μg/mL compound, 72 h): 58.9%
- inhibition at 16 µg/mL (Hep G2; Hep G2, 16 μg/mL compound, 72 h, read-out: IR (inhibition rate)): 25.3%
- IC50 (Hep G2; Hep G2, 72 h, MTT): > 16 µg/mL
- inhibition at 16 µg/mL (RKO; [1]): 63.1%
- IC50 (RKO; MTT): 14.3 µg/mL (≈ 27.4 µM)
- inhibition at 16 µg/mL (U87 MG; Homo sapiens, U-87 MG, U87 MG, 16 μg/mL compound, 72 h, read-out: IR (inhibition rate)): 47.9%
- IC50 (U87 MG; Homo sapiens, U-87 MG, U87 MG, 72 h, MTT): 16 µg/mL (≈ 30.7 µM)
- improvement of cell inhibition rate as compared with oleanolic acid (U87 MG; U87 MG cells): more than 2 fold
- inhibition at 16 µg/mL (Hela; [1]): 72.9%
- IC50 (Hela; MTT): 12.6 µg/mL (≈ 24.1 µM)
- improvement of cell inhibition rate as compared with oleanolic acid (CaES-17; CaES-17 cells): more than 2 fold
- inhibition at 16 µg/mL (CaES-17; Homo sapiens, CaEs17, CaES-17, 16 μg/mL compound, 72 h, read-out: IR (inhibition rate)): 66.6%
- IC50 (CaES-17; Homo sapiens, CaEs17, CaES-17, 72 h, MTT): 12.4 µg/mL (≈ 23.8 µM)
- inhibition at 16 µg/mL (CNE; [1]): 42.4%
- IC50 (CNE; MTT): > 16 µg/mL
- improvement of cell inhibition rate as compared with oleanolic acid (Hep-2; Hep-2 cells): more than 3 fold
- inhibition at 16 µg/mL (Hep-2; Homo sapiens, Hep-2, 16 μg/mL compound, 72 h, read-out: IR (inhibition rate)): 37.3%
- IC50 (Hep-2; Homo sapiens, Hep-2, 72 h, MTT): > 16 µg/mL
- inhibition at 16 µg/mL (MGC803; MGC803, 16 μg/mL compound, 72 h, read-out: IR (inhibition rate)): 50%
- IC50 (MGC803; MGC803, 72 h, MTT): 16 µg/mL (≈ 30.7 µM)
- inhibition at 16 µg/mL (PC-3; PC-3, 16 μg/mL compound, 72 h, read-out: IR (inhibition rate)): 47.2%
- IC50 (PC-3; PC-3, 72 h, MTT): 19.5 µg/mL (≈ 37.4 µM)
- inhibition at 16 µg/mL (SK-OV-3; SK-OV-3, 16 μg/mL compound, 72 h, read-out: IR (inhibition rate)): 43.2%
- IC50 (SK-OV-3; SK-OV-3, 72 h, MTT): > 16 µg/mL
